Laboratory results as given in the NIST ThermoML archive (doi:10.1016/j.tca.2013.08.016).

What was measured:
[1] = refractive index (Na D-line) (dimensionless); φn = volume fraction of the nth substance listed; settings: 101 kPa, Liquid, Standard Abbe refractometry
[2] = refractive index (Na D-line) (dimensionless); settings: 101.33 kPa, Liquid, Standard Abbe refractometry

CCCC[n+]1ccccc1.F[B-](F)(F)F [1-butylpyridinium tetrafluoroborate] + CCO
[1]
Settings | refractive index
303.15 K, φ1 = 0.0806 | 1.36595
303.15 K, φ1 = 0.1412 | 1.37218
303.15 K, φ1 = 0.2622 | 1.3839
303.15 K, φ1 = 0.3554 | 1.39236
303.15 K, φ1 = 0.4323 | 1.39905
303.15 K, φ1 = 0.561 | 1.40993
303.15 K, φ1 = 0.6685 | 1.41861
303.15 K, φ1 = 0.7512 | 1.42527
303.15 K, φ1 = 0.8213 | 1.43076
303.15 K, φ1 = 0.8742 | 1.43497
303.15 K, φ1 = 0.9217 | 1.43861
303.15 K, φ1 = 0.9612 | 1.44158
303.15 K, φ1 = 1 | 1.44454
313.15 K, φ1 = 0.0802 | 1.36207
313.15 K, φ1 = 0.1405 | 1.36844
313.15 K, φ1 = 0.2611 | 1.38045
313.15 K, φ1 = 0.3541 | 1.389
313.15 K, φ1 = 0.4308 | 1.39575
313.15 K, φ1 = 0.5595 | 1.40676
313.15 K, φ1 = 0.6672 | 1.4156
313.15 K, φ1 = 0.7501 | 1.42236
313.15 K, φ1 = 0.8205 | 1.42796
313.15 K, φ1 = 0.8736 | 1.43225
313.15 K, φ1 = 0.9213 | 1.43596
313.15 K, φ1 = 0.961 | 1.43898
313.15 K, φ1 = 1 | 1.4419
323.15 K, φ1 = 0.0798 | 1.35794
323.15 K, φ1 = 0.1398 | 1.3646
323.15 K, φ1 = 0.26 | 1.37704
323.15 K, φ1 = 0.3528 | 1.38573
323.15 K, φ1 = 0.4294 | 1.39254
323.15 K, φ1 = 0.5581 | 1.40354
323.15 K, φ1 = 0.6659 | 1.41255
323.15 K, φ1 = 0.749 | 1.41938
323.15 K, φ1 = 0.8196 | 1.42508
323.15 K, φ1 = 0.8729 | 1.42947
323.15 K, φ1 = 0.9209 | 1.43328
323.15 K, φ1 = 0.9607 | 1.43633
323.15 K, φ1 = 1 | 1.43924

CCCC[n+]1ccccc1.F[B-](F)(F)F [1-butylpyridinium tetrafluoroborate] + CO
[1]
Settings | refractive index
293.15 K, φ1 = 0.0747 | 1.33926
293.15 K, φ1 = 0.1041 | 1.34327
293.15 K, φ1 = 0.2013 | 1.35648
293.15 K, φ1 = 0.3315 | 1.37286
293.15 K, φ1 = 0.4125 | 1.38271
293.15 K, φ1 = 0.5222 | 1.39563
293.15 K, φ1 = 0.6527 | 1.41047
293.15 K, φ1 = 0.7475 | 1.42106
293.15 K, φ1 = 0.8152 | 1.42843
293.15 K, φ1 = 0.8666 | 1.43377
293.15 K, φ1 = 0.9113 | 1.43844
293.15 K, φ1 = 0.9687 | 1.44425
293.15 K, φ1 = 1 | 1.44719
303.15 K, φ1 = 0.0742 | 1.3354
303.15 K, φ1 = 0.1035 | 1.33949
303.15 K, φ1 = 0.2002 | 1.35293
303.15 K, φ1 = 0.3301 | 1.36955
303.15 K, φ1 = 0.411 | 1.37949
303.15 K, φ1 = 0.5206 | 1.39258
303.15 K, φ1 = 0.6513 | 1.40757
303.15 K, φ1 = 0.7463 | 1.41824
303.15 K, φ1 = 0.8142 | 1.42561
303.15 K, φ1 = 0.8658 | 1.43105
303.15 K, φ1 = 0.9108 | 1.43576
303.15 K, φ1 = 0.9685 | 1.4416
303.15 K, φ1 = 1 | 1.44454
313.15 K, φ1 = 0.0737 | 1.33144
313.15 K, φ1 = 0.1028 | 1.33587
313.15 K, φ1 = 0.1991 | 1.34941
313.15 K, φ1 = 0.3286 | 1.36646
313.15 K, φ1 = 0.4096 | 1.3765
313.15 K, φ1 = 0.5189 | 1.38958
313.15 K, φ1 = 0.6498 | 1.40471
313.15 K, φ1 = 0.745 | 1.41542
313.15 K, φ1 = 0.8132 | 1.42273
313.15 K, φ1 = 0.865 | 1.42832
313.15 K, φ1 = 0.9103 | 1.433
313.15 K, φ1 = 0.9683 | 1.43897
313.15 K, φ1 = 1 | 1.4419
323.15 K, φ1 = 0.0732 | 1.32837
323.15 K, φ1 = 0.1022 | 1.33278
323.15 K, φ1 = 0.1981 | 1.3469
323.15 K, φ1 = 0.3271 | 1.3641
323.15 K, φ1 = 0.408 | 1.37436
323.15 K, φ1 = 0.5172 | 1.38733
323.15 K, φ1 = 0.6482 | 1.40238
323.15 K, φ1 = 0.7438 | 1.41283
323.15 K, φ1 = 0.8122 | 1.42002
323.15 K, φ1 = 0.8642 | 1.42546
323.15 K, φ1 = 0.9097 | 1.43029
323.15 K, φ1 = 0.9681 | 1.43614
323.15 K, φ1 = 1 | 1.43924

CCO [ethanol]
[2]
Settings | refractive index
293.15 K | 1.36144
303.15 K | 1.35702
313.15 K | 1.3527
323.15 K | 1.34837

CCO [ethanol] + CCCC[n+]1ccc(C)cc1.F[B-](F)(F)F
[1], φ2 = 0
Settings | refractive index
293.15 K | 1.36144
303.15 K | 1.35702
313.15 K | 1.3527
323.15 K | 1.34837

CCO [ethanol] + CCCC[n+]1cccc(C)c1.F[B-](F)(F)F
[1], φ2 = 0
Settings | refractive index
293.15 K | 1.36144
303.15 K | 1.35702
313.15 K | 1.3527
323.15 K | 1.34837

CCO [ethanol] + CCCC[n+]1ccccc1.F[B-](F)(F)F
[1], φ2 = 0
Settings | refractive index
303.15 K | 1.35702
313.15 K | 1.3527
323.15 K | 1.34837

CO [methanol]
[2]
Settings | refractive index
293.15 K | 1.32843
303.15 K | 1.32433
313.15 K | 1.32015
323.15 K | 1.3167

CO [methanol] + CCCC[n+]1ccc(C)cc1.F[B-](F)(F)F
[1], φ2 = 0
Settings | refractive index
293.15 K | 1.32843
303.15 K | 1.32433
313.15 K | 1.32015
323.15 K | 1.3167

CO [methanol] + CCCC[n+]1cccc(C)c1.F[B-](F)(F)F
[1], φ2 = 0
Settings | refractive index
293.15 K | 1.32843
303.15 K | 1.32433
313.15 K | 1.32015
323.15 K | 1.3167

CO [methanol] + CCCC[n+]1ccccc1.F[B-](F)(F)F
[1], φ2 = 0
Settings | refractive index
293.15 K | 1.32843
303.15 K | 1.32433
313.15 K | 1.32015
323.15 K | 1.3167
